Laboratory results: patent US20080281105A1, “Novel Quinolinium Salts and Derivatives” (IMMUSOL INCORPORATED, priority 2005, published 2008)
pEC50: −log10 of the molar value.

Experiments:
[1] = tested on: A549 cancer cells; test: A549 NSCL xenograft model, combination with 2DG; assay type: in vivo, mice; conditions: 2DG 300 mg/kg, Example 36 2 mg/kg, i.p. daily (6 times per week); Example 36 alone p<0.05 at day 24 and 27; combination p<0.05 at day 13-27; FIG. 7
From the text: Because the compounds of the invention may be more toxic to cancer cells deprived of glucose or treated with 2DG in vitro, the combination of 2DG with such compounds should have increased anti-tumor efficacy in vivo as compared with either agent alone. Accordingly, the effect of a combination therapy of the compound of Example 36 and 2DG using A549 NSCL xenograft model was examined.
Female athymic nude mice (nu/nu) (4-6 weeks old) were inoculated (s.c.) with 5×10^6 A549 cancer cells in PBS on the flanking site. After the tumors reached an average size ˜100 mm^3, the animals were divided into four treatment groups—0.9% NaCl (control), 2DG at 300 mg/kg, the compound of Example 36 at 2 mg/kg, and a combination of 2DG (300 mg/kg) and the compound of Example 36 (2 mg/kg). All the treatments were delivered by intraperitoneal injection daily (6 times per week). Tumor size and body weight were measured twice per week. Tumor volume was calculated using the formula TV=length×width×width/2.

[2] = tested on: Panc-1, HCT-116, Pc3M/N, HEPG2, ASPC1, or H460 cells; test: Reduction of viable cell growth in glucose deprived media (liquid culture, alamarBlue); assay type: cell-based; conditions: for pEC50: concentration giving at least 50% reduction of viable cell growth
[3] = tested on: Lewis lung cancer cells; test: Mouse Lewis lung cancer (LLC) xenograft model; assay type: in vivo, mice; conditions: 2 mg/kg intraperitoneal, 6 times per week; day 15; p<0.05; FIG. 6
Procedure: Using the mouse Lewis lung cancer (LLC) xenograft model, female C57BL mice (4-6 weeks old) were inoculated (s.c.) with 5×10^5 Lewis lung cancer cells in PBS on the flanking site. Animals were randomly divided into treatment and control groups (n=8) based on tumor size when average tumor size reached 100 mm^3. Animals in the treatment group received the compound of Example 36 (also designated IMS2143) or the compound of Example 47 daily at 2 mg/kg via intraperitoneal dosing, 6 times per week respectively. The control group was injected with 0.9% NaCl. Tumor size and body weight were measured twice per week. Tumor volume was calculated using the formula TV=length×width×width/2.

[4] = tested on: Lewis lung cancer cells; test: Mouse LLC model, combination with 2DG; assay type: in vivo, mice; conditions: Example 36 2 mg/kg, 2DG 300 mg/kg, i.p. 6 times per week; p<0.05; FIG. 8
Procedure: More specifically, female C57BL mice (4-6 weeks old) were inoculated (s.c.) with 5×10^5 Lewis lung cancer cells in PBS on the flanking site. Animals were randomly divided into treatment and control groups (n=8) based on tumor size when average tumor size reached 100 mm^3. Animals in the treatment groups received the compound of Example 36 daily at 2 mg/kg and 2DG at 300 mg/kg via intraperitoneal dosing, 6 times per week respectively. Tumor size and body weight were measured twice per week. Tumor volume was calculated using the formula TV=length×width×width/2.

[5] = tested on: A549 cancer cells; test: A549 xenograft model, combination with taxol; assay type: in vivo, mice; conditions: paclitaxel 20 mg/kg once per 4 days i.p.; IMS2155 2 mg/kg daily i.p.; p<0.05 for monotherapies; FIG. 5
Procedure: Combination treatment with taxol and the compound of Example 47 (also designated IMS2155) in the A549 (NCLC) model was tested. Taxol is one of standards of care for lung cancer.
Female athymic nude mice (nu/nu) (4-6 weeks old) were inoculated (s.c.) with 5×10^6 A549 cancer cells in PBS on the flanking site. The animals were divided into four treatment groups when the average tumor size reached 150 mm^3: group 1 (PBS daily i.p. dosing), group 2 (20 mg/kg paclitaxel once per 4 days i.p. dosing), group 3 (2 mg/kg IMS2155 daily i.p. dosing) and group 4 (20 mg/kg paclitaxel once per 4 days i.p. dosing and 2 mg/kg IMS2155 daily i.p. dosing). The tumor size and body weight was measured twice per week. Tumor volume was calculated using the formula TV=length×width×width/2.
It is noteworthy that IMS2155 worked almost as well as Taxol at the MTD dose (20 mg/kg for this strain of mice).

[6] = tested on: H460 NSCL cells; test: Non-small cell lung cancer (NSCL) xenograft early stage model in nude mice; assay type: in vivo
Procedure: The anti-tumor activity of the compound of Example 56 was tested in a nude mice xenograft early stage model. Female athymic nude (nu/nu) mice were inoculated with H460 NSCL cells and divided into two groups. The first group was dosed with vehicle (control), and the second group was dosed i. p. with the compound of Example 56 on a daily basis (6 times/week).

[7] = tested on: eukaryotic translation system; conditions: reported by Malina; cited from earlier work
[8] = tested on: PC3 prostate cells; test: PC3 medium-staged prostate xenograft model, combination therapy; assay type: in vivo, mice; conditions: Example 1 P.O. daily, doxorubicin or paclitaxel i.p.; tumors around 100 mm^3 at start; FIG. 3 and 4
Procedure: The anti-tumor activity of compounds of the invention in combination with at least one additional chemotherapeutic agent was also tested in a nude mice xenograft model.
(§1) A. Female athymic nude (nu/nu) mice were inoculated with PC3 prostate cells. When tumor volumes reached around 100 mm^3, the animals were divided into four groups with average size of tumors similar among the four groups. The first group was dosed with vehicle (as control), the second group with the compound of Example 1 (P.O. daily), the third with doxorubicin (i.p.) and the fourth with the combination (i.p. Dox/p.o. compound of Example 1).
as §1, with “B.” for “A.”, “paclitaxel (taxol)” for “doxorubicin”, “(ip. taxol/p.o.” for “(i.p. Dox/p.o.”

[9] = tested on: transformed cell growth; conditions: reported in the literature; cited from earlier work

Compound: O=CC[C@@H](O)[C@H](O)[C@H](O)CO [Example 2DG, 2-deoxyglucose, reference compound]
- A549 tumor growth [1]: no response

Compound: COCCn1c(C)c(C=O)c(/C=C/c2ccc3cc(N(C)C)ccc3[n+]2C)c1C [Example 25]
- pEC50 [2]: > 6.00

Compound: Cc1cc(/C=C/c2ccc3cc(N4CCOCC4)ccc3[n+]2C)c(C)n1-c1ccccc1 [Example 26]
- pEC50 [2]: 6.00

Compound: CCCCn1c(C)c(C=O)c(/C=C/c2ccc3cc(N4CCOCC4)ccc3[n+]2C)c1C [Example 27]
- pEC50 [2]: < 6.00

Compound: Cc1c(C=O)c(/C=C/c2ccc3cc(N(C)C)ccc3[n+]2C)c(C)n1-c1ccccc1 [Example 28]
- pEC50 [2]: > 6.00

Compound: Cc1cc(/C=C/c2ccc3cc(N4CCCCC4)ccc3[n+]2C)c(C)n1-c1ccccc1 [Example 29]
- pEC50 [2]: 6.00

Compound: Cc1cc(/C=C/c2ccc3cc(N4CCC(C)CC4)ccc3[n+]2C)c(C)n1-c1ccccc1 [Example 30]
- pEC50 [2]: 6.00

Compound: CN(C)c1ccc2c(ccc(/C=C/c3cccc(-c4cccs4)n3)[n+]2C)c1 [Example 31]
- pEC50 [2]: 6.00

Compound: CN(C)c1ccc2c(ccc(/C=C/c3ccc(-c4ccccc4)s3)[n+]2C)c1 [Example 32]
- pEC50 [2]: 6.00

Compound: Cc1cc(/C=C/c2ccc3cc(N(C)C)ccc3[n+]2C)oc1C [Example 33]
- pEC50 [2]: 6.00

Compound: CN(C)c1ccc2c(ccc(/C=C/c3cccc(Oc4ccccc4)c3)[n+]2C)c1 [Example 34]
- pEC50 [2]: 6.00

Compound: CN(C)c1ccc2c(ccc(/C=C/c3ccc(Oc4ccccc4)cc3)[n+]2C)c1 [Example 35]
- pEC50 [2]: > 6.00

Compound: CCCCOc1ccc(/C=C/c2ccc3cc(N(C)C)ccc3[n+]2C)cc1.O=S(=O)([O-])C(F)(F)F [Example 36]
- LLC tumor growth [3]: significantly suppressed tumor growth
- LLC tumor growth as compared with 2DG alone or control [4]: significantly inhibited tumor growth
- pEC50 [2]: > 6.00
- A549 tumor growth [1]: significantly inhibited tumor growth

Compound: CN(C)c1ccc2c(ccc(/C=C/c3ccc(-c4cc(C(F)(F)F)nn4C)s3)[n+]2C)c1 [Example 37]
- pEC50 [2]: 6.00

Compound: CN(C)c1ccc2c(ccc(/C=C/c3ccc(-c4nn(C)cc4C(F)(F)F)s3)[n+]2C)c1 [Example 38]
- pEC50 [2]: 6.00

Compound: CCCCc1nc(/C=C/c2ccc3cc(N(C)C)ccc3[n+]2C)c(Cl)[nH]1 [Example 39]
- pEC50 [2]: < 6.00

Compound: CN(C)c1ccc2c(ccc(/C=C/c3coc4ccccc4c3=O)[n+]2C)c1 [Example 40]
- pEC50 [2]: 6.00

Compound: CN(C)c1ccc2c(ccc(/C=C/c3cn(S(=O)(=O)c4ccccc4)c4ccccc34)[n+]2C)c1 [Example 41]
- pEC50 [2]: 6.00

Compound: CN(C)c1ccc2c(ccc(/C=C/c3ccc4oc(C(=O)c5ccc(Cl)cc5)cc4c3)[n+]2C)c1 [Example 42]
- pEC50 [2]: 6.00

Compound: CN(C)c1ccc2c(ccc(/C=C/c3ccc(OCc4ccsc4C#N)cc3)[n+]2C)c1 [Example 43]
- pEC50 [2]: > 6.00

Compound: CN(C)c1ccc2c(ccc(/C=C/c3ccc(OC(F)(F)F)cc3)[n+]2C)c1 [Example 44]
- pEC50 [2]: 6.00

Compound: COc1cc(/C=C/c2ccc3cc(N(C)C)ccc3[n+]2C)ccc1OCc1ccccc1 [Example 45]
- pEC50 [2]: > 6.00

Compound: CN(C)c1ccc2c(ccc(/C=C/c3ccc(OCc4ccccc4)cc3)[n+]2C)c1 [Example 46]
- pEC50 [2]: > 6.00

Compound: Cc1cc(/C=C/c2ccc3cc(N(C)C)ccc3[n+]2C)cc(C)c1OCc1ccccc1.O=S(=O)([O-])C(F)(F)F [Example 47]
- LLC tumor growth [3]: significantly suppressed tumor growth
- A549 tumor size [5]: significant reduction in tumor size
- pEC50 [2]: > 6.00

Compound: Cc1c(/C=C/c2ccc3cc(N(C)C)ccc3[n+]2C)cnn1-c1ccccc1 [Example 48]
- pEC50 [2]: < 6.00

Compound: CN(C)c1ccc2c(ccc(/C=C/c3sccc3Oc3ccccc3)[n+]2C)c1 [Example 49]
- pEC50 [2]: > 6.00

Compound: CN(C)c1ccc2c(ccc(/C=C/c3ccc(C#Cc4ccccc4)s3)[n+]2C)c1 [Example 50]
- pEC50 [2]: > 6.00

Compound: CCn1c2ccccc2c2cc(/C=C/c3ccc4cc(N(C)C)ccc4[n+]3C)ccc21 [Example 51]
- pEC50 [2]: > 6.00

Compound: CN(C)c1ccc2c(ccc(/C=C/c3cc(C(=O)c4ccc(F)cc4)cn3C)[n+]2C)c1.O=S(=O)([O-])C(F)(F)F [Example 52]
- reduction of viable cell growth ([2]; at the concentration stated in Table 3): inactive
- pEC50 [2]: < 6.00

Compound: CCOC(=O)c1c(/C=C/c2ccc3cc(N(C)C)ccc3[n+]2C)c(C)n(C2CC2)c1C [Example 53]
- pEC50 [2]: > 6.00

Compound: CCOC(=O)c1c(/C=C/c2ccc3cc(N(C)C)ccc3[n+]2C)c(C)n(-c2ccccc2)c1C [Example 54]
- pEC50 [2]: > 6.00

Compound: CCOC(=O)c1c(/C=C/c2ccc3cc(N(C)C)ccc3[n+]2C)c(C)n(Cc2cccs2)c1C [Example 55]
- pEC50 [2]: > 6.00

Compound: CCCCn1c(C)c(C=O)c(/C=C/c2ccc3cc(N(C)C)ccc3[n+]2C)c1C.CS(=O)(=O)[O-] [Example 56]
- Result: Tumor reduction ([6]; NSCL, H460 xenograft, I.p.): Tumor reduction (41%)
- H460 tumor size as compared to control ([6]; dosed i.p. daily (6 times/week), p<0.05, FIG. 2): significant reduction
- toxicity ([6]; nude mice, H460 xenograft, i.p. daily (6 times/week)): no apparent toxicity
- pEC50 [2]: > 6.00

Compound: CCCCn1c(C)c(C=O)c(/C=C/c2ccc3cc(C)ccc3[n+]2C)c1C [Example 57]
- pEC50 [2]: > 6.00

Compound: CCCCn1c(C)c(C=O)c(/C=C/c2ccc3cc(Cl)ccc3[n+]2C)c1C [Example 58]
- pEC50 [2]: > 6.00

Compound: Cc1cc(C=Cc2ccc3cc(OC(N)=O)ccc3[n+]2C)c(O)c2ncccc12 [NSC 86372, 6-(aminocarbonyloxy)-2-(2-(8-hydroxy-5-methylquinolin-7-yl)vinyl)-1-methylquinolinium]
- protein synthesis [7]: inhibited protein synthesis

Compound: CC(=O)O[C@H]1C(=O)[C@@]2(C)[C@H]([C@H](OC(=O)c3ccccc3)[C@]3(O)C[C@H](OC(=O)[C@H](O)[C@@H](NC(=O)c4ccccc4)c4ccccc4)C(C)=C1C3(C)C)[C@]1(OC(C)=O)CO[C@@H]1C[C@@H]2O [Taxol, paclitaxel, reference compound]
- growth of PC3 medium-staged xenograft tumors [8]: reduced tumor size significantly
- A549 tumor size [5]: significant reduction in tumor size

Compound: CC[n+]1c(C=Cc2ccc(N(C)C)cc2)ccc2ccccc21 [quinaldine red]
- transformed cell growth [9]: inhibitor of transformed cell growth
